Where two headings read alike, the source gives them in different places.
Assays:
Assay in all cases: biochemical
Parameters in all cases: Thermal shift (DSF, SYPRO Orange) Tm shift of recombinant kinase domains at 10 uM compound
[1] = biological target: T1, EPHB1 (Homo sapiens, UniProt P54762)
T1 sequence (P54762 1-984): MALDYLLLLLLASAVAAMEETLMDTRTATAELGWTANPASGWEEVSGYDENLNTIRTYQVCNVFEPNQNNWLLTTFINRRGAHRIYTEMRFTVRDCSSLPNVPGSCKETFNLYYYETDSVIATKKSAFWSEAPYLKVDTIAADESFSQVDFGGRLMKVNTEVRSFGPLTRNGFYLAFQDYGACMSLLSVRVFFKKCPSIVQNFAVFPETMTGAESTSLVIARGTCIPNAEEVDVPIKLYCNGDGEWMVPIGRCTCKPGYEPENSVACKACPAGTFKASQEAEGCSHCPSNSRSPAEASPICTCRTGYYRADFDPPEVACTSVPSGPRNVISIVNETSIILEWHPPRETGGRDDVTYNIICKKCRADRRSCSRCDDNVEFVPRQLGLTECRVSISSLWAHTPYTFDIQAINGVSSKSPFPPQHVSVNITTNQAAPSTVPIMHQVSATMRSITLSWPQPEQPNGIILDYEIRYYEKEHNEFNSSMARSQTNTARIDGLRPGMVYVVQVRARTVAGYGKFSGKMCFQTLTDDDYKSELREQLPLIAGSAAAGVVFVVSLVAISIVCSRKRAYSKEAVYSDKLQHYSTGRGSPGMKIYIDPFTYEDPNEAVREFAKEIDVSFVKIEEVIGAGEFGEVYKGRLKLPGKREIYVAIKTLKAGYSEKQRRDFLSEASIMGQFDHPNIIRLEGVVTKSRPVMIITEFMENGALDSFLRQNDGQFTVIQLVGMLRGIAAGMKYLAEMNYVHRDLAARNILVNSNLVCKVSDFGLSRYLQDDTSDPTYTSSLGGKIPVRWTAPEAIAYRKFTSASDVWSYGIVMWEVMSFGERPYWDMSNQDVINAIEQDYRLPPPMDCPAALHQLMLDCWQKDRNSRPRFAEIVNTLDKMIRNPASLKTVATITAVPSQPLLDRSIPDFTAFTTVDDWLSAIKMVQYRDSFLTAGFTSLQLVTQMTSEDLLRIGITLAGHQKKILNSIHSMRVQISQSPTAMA
Method: (§1) S23 Thermal stability kinase selectivity. The assay was performed as previously described. 9,10 Briefly, recombinant protein kinase domains at a concentration of 2 μM were mixed with 10 μM compound in a buffer containing 20 mM HEPES, pH 7.5, and 500 mM NaCl. SYPRO Orange (5000×, Invitrogen) was added as a fluorescence probe (1 µl per mL). Subsequently, temperature-dependent protein unfolding profiles were measured using the QuantStudio™ 5 realtime PCR machine (Thermo Fisher). […] The temperature was raised with a step rate of 3°C per minute. Data points were analysed with the internal software (Thermal Shift SoftwareTM Version 1.4, Thermo Fisher) using the Boltzmann equation to determine the inflection point of the transition curve.

[2] = biological target: CDKL1 (Homo sapiens, UniProt Q00532)
Method: as §1

[3] = biological target: T2, NQO2 (Homo sapiens, UniProt P16083)
T2 sequence (P16083 1-231): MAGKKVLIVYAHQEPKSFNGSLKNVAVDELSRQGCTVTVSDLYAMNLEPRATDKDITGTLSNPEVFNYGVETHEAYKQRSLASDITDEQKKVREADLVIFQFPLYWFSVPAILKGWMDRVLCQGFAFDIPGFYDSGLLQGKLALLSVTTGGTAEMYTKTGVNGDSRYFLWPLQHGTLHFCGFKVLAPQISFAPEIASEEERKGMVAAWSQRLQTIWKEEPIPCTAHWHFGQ
Method: as §1

[4] = biological target: T3, GAK (Homo sapiens, UniProt O14976)
T3 sequence (O14976 1-1311): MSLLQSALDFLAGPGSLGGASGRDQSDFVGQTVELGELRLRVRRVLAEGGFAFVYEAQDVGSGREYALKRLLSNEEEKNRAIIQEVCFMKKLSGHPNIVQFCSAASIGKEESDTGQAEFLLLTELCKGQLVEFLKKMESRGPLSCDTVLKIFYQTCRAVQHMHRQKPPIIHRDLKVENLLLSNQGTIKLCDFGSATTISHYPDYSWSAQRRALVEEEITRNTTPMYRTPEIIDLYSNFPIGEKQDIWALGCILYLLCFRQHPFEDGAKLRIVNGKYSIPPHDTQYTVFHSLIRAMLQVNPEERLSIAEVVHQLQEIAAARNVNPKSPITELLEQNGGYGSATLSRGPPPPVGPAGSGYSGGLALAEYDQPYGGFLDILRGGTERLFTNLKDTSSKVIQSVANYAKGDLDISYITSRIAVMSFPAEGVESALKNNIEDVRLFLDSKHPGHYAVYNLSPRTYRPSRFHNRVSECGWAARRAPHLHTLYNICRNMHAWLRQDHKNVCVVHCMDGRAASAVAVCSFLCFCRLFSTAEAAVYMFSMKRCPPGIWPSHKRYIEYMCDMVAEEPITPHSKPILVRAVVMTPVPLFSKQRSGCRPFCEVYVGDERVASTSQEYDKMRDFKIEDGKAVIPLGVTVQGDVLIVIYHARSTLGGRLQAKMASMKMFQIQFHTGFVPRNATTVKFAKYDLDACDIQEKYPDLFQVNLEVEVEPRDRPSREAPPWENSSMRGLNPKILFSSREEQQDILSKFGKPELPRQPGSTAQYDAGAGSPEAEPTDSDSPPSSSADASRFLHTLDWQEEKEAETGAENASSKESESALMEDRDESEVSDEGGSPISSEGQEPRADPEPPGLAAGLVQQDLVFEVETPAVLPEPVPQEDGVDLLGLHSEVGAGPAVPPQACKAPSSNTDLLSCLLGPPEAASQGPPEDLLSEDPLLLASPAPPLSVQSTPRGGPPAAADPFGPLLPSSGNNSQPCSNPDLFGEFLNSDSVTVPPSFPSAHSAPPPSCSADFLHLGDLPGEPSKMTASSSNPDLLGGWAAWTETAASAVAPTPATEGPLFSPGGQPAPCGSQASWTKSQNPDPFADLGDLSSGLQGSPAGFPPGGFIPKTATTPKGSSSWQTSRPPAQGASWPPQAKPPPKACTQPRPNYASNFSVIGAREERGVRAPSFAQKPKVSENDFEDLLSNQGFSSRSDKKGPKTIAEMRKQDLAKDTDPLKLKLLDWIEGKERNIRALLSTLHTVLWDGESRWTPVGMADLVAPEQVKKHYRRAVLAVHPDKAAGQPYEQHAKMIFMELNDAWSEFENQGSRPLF
Method: as §1

CDKL1, sequence (Q00532 whole entry): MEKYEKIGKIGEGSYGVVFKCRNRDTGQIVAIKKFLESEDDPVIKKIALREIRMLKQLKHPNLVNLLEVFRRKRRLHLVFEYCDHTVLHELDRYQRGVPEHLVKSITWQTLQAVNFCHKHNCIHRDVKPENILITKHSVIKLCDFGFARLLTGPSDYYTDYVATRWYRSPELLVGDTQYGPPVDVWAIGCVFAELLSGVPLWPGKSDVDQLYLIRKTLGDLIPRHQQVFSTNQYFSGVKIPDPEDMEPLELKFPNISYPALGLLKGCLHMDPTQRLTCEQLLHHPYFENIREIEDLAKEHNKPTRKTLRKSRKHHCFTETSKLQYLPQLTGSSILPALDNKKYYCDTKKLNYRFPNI

With `CC(C)Oc1ccc2ccn(-c3cncc(-c4ccc(C(=O)O)cc4)n3)c2c1` [6c] the ΔTm at 10 µM ([1]; read-out: 6c) was 2 °C, the ΔTm at 10 µM ([2]; read-out: 6c) was 3 °C and the ΔTm at 10 µM ([3]; read-out: 6c) was -1 °C. It also gave a ΔTm at 10 µM ([4]; read-out: 6c) of 9 °C.

Compound `COc1ccc(OC(C)C)cc1Nc1cncc(-c2ccc(C(=O)O)cc2)n1` [7c] has a ΔTm at 10 µM ([1]; read-out: 7c) of 1 °C, a ΔTm at 10 µM ([2]; read-out: 7c) of 1 °C and a ΔTm at 10 µM ([3]; read-out: 7c) of -1 °C. For the same compound, the ΔTm at 10 µM ([4]; read-out: 7c) was 7 °C.

`CC(C)Nc1ccc2cnn(-c3cncc(-c4ccc(C(=O)O)cc4)n3)c2c1` [compound 2, 2] gave a ΔTm at 10 µM ([1]; read-out: 2) of 2 °C, a ΔTm at 10 µM ([2]; read-out: 2) of 2 °C and a ΔTm at 10 µM ([3]; read-out: 2) of -1 °C. The ΔTm at 10 µM ([4]; read-out: 2) was 11 °C.
